Experimental data from patent US4689326A, “Process for controlling hyperlipidemia” (Research Corporation, priority 1985, dated 1987).

Legend:
[1] = test system: ATP Dependent Citrate Lyase; experiment: In vivo enzyme activity, liver of treated mice: ATP dependent citrate lyase; set-up: species or system CF1 male mice; settings: 16 days, ± SD
Description: (§1) In vitro enzymatic studies were undertaken using 10% homogenates of CF1 male mouse liver with […] of compound 3,4,5,6-dibenzohomopiperidine. In addition, in vivo enzymatic studies were performed, again using 10% liver homogenates (prepared in 0.25 M sucrose plus 0.001 M (ethylenedinitrilo)-tetraacetic acid, ph 7.25 from CF1 male mice obtained after administering 3,4,5,6-dibenzohomopiperidine for 16 days at a concentration ranging from 10 to 60 mg/kg/day, intraperitoneally.
(§2) The following enzyme activities were determined by following standard literature procedures: acetyl coenzyme synthetase; adenosine triphosphate dependent citrate lyase; mitochondrial citrate exchange; cholesterol/7 hydroxylase; 3-hydroxy-3-methyl-glutaryl coenzyme A reductase; acetyl coenzyme A carboxylase activity; fatty acid synthetase activity; sn-glycerol-3-phosphate acyl transferase activity; phosphatidate phosphohydrolase activity; cholesterol acyl transferase; and heparin activated hepatic lypoprotein lipase. Protein was determined for all enzyme assays by the Lowry et al. technique (J. Biol. Chem, 193, 265 (1951)).

serum cholesterol = experiment: Testing of Normal Rats: serum cholesterol, Example 8; assay type: in vivo, Sprague Dawley male rats; settings: oral 20 mg/kg/day
Description: In Example 8 a set of six Sprague Dawley male rats, each weighing approximately 350 grams, were orally treated with a concentration of 20 mg per kilogram of rat weight per day, again suspended in a 1% aqueous solution of CMC. The dosage was applied orally by an intubation needle. On days 9 and 16 serum cholesterol and serum triglycerides blood levels of the rats were measured utilizing th procedure of Example 7.
A control group of six similar Sprague Dawley male rats were untreated but tested on Days 9 and 16 in accordance with the tests administered to the treated rats. Table 6 reports the percent control based on the decrease in serum cholesterol and serum triglycerides of the treated rats compared to the levels measured in the untreated control group.

Fatty Acid Synthetase = experiment: In vivo enzyme activity, liver of treated mice: fatty acid synthetase; set-up: species or system CF1 male mice; settings: 16 days, ± SD
Description: as §1, §2

HDL = experiment: Lipoprotein fractions in Rats, Example 11: HDL; assay type: in vivo, Sprague Dawley male rats; settings: oral 20 mg/kg/day, fourteen days, ± SD
Description: (§3) A group of six Sprague Dawley male rats were treated with 20 mg/kg/day of 3,4,5,6-dibenzohomopiperidine. The treatment was applied orally. An equal number of Sprague Dawley male rats, having approximately the same weight, were utilized as an untreated control. At the end of fourteen days the control and treated rats were sacrificed. Blood was collected from the abdominal aorta and lipoprotein fractions were obtained by the method of Hatch and Lees [Adv. Lipid Rees., 6, 1 (1968)] and Havel et al. [J. Clin Invest., 34, 1345 (1955)]. Each of the fractions were analyzed for cholesterol, triglycerides, neutral lipids, phospholipids and protein levels.

Acetyl CoA Carboxylase [2] = experiment: In vivo enzyme activity, liver of treated mice: acetyl CoA carboxylase; set-up: species or system CF1 male mice; settings: 16 days, ± SD
Description: as §1, §2

Chylomicrons = experiment: Lipoprotein fractions in Rats, Example 11: chylomicrons; assay type: in vivo, Sprague Dawley male rats; settings: oral 20 mg/kg/day, fourteen days, ± SD
Description: as §3

[3] = biological target: T1, ATP Dependent Citrate Lyase (Mus musculus, UniProt Q91V92); experiment: In vitro enzyme activity, liver homogenate: ATP dependent citrate lyase; assay type: biochemical, CF1 male mouse; settings: ± SD, N = 6, read-out: Percent Control, in vitro enzyme activity
T1 construct: 10% homogenates of CF1 male mouse liver; from tissue; host or cells: CF1 male mouse liver, 10% homogenate
T1 sequence (Q91V92 1-1091): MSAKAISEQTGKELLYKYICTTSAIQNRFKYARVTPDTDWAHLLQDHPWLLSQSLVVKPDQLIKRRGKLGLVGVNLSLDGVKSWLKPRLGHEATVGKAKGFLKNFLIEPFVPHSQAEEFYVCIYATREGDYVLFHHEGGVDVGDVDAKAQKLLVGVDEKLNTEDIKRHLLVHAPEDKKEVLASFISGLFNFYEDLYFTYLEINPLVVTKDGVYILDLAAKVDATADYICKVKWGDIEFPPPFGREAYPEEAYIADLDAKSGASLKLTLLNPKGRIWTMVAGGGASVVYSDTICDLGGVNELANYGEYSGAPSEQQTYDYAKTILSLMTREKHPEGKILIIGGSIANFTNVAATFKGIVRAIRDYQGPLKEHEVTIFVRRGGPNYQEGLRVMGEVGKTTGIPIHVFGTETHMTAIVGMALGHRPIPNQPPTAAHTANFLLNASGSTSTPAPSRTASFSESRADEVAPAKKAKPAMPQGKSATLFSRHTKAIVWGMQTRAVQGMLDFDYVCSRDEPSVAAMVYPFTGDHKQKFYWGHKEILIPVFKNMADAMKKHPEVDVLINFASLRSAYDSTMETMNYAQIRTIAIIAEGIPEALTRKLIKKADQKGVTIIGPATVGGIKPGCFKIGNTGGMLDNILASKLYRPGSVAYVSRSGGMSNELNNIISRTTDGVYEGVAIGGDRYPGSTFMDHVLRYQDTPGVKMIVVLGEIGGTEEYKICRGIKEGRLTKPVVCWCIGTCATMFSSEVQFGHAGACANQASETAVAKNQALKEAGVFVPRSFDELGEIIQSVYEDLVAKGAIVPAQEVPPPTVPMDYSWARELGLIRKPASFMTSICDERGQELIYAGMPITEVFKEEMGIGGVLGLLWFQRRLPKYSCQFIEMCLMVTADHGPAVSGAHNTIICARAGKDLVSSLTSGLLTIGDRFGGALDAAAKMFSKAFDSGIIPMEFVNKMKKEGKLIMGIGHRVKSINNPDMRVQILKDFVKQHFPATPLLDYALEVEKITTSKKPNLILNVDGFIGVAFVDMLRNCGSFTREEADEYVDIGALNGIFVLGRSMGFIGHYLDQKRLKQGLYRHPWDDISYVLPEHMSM
Description: as §1, §2

Acetyl CoA Carboxylase [4] = biological target: T2, Acetyl CoA Carboxylase (Mus musculus, UniProt Q5SWU9); experiment: In vitro enzyme activity, liver homogenate: acetyl CoA carboxylase; assay type: biochemical, CF1 male mouse; settings: ± SD, N = 6, read-out: Percent Control, in vitro enzyme activity
T2 construct: 10% homogenates of CF1 male mouse liver; from tissue; host or cells: CF1 male mouse liver, 10% homogenate
Description: as §1, §2

c1ccc2c(c1)CNCc1ccccc1-2 [Compound 3, 3,4,5,6-dibenzohomopiperidine]
Percent Control, in vivo enzyme activity ([1]; 10 mg/kg/day ip): 73 ± 6% | Percent Control, in vivo enzyme activity ([1]; 20 mg/kg/day ip): 63 ± 4% | Percent Control, in vivo enzyme activity ([1]; 40 mg/kg/day ip): 62 ± 3% | Percent Control, in vivo enzyme activity ([1]; 60 mg/kg/day ip): 65 ± 5% | % Control Serum Cholesterol Day 9 (serum cholesterol; day 9, ± SD): 75 ± 5% | % Control Serum Cholesterol Day 16 (serum cholesterol; day 16, ± SD): 64 ± 3% | Percent Control, in vivo enzyme activity (Fatty Acid Synthetase; 10 mg/kg/day ip): 100 ± 8% | Percent Control, in vivo enzyme activity (Fatty Acid Synthetase; 20 mg/kg/day ip): 114 ± 6% | Percent Control, in vivo enzyme activity (Fatty Acid Synthetase; 40 mg/kg/day ip): 106 ± 7% | Percent Control, in vivo enzyme activity (Fatty Acid Synthetase; 60 mg/kg/day ip): 110 ± 8% | Cholesterol, concentration as a function of control (HDL): 106 ± 5% | Neutral Lipids, concentration as a function of control (HDL): 59 ± 5% | Phospholipids, concentration as a function of control (HDL): 64 ± 3% | Protein, concentration as a function of control (HDL): 106 ± 7% | Triglycerides, concentration as a function of control (HDL): 40 ± 2% | Percent Control, in vivo enzyme activity (Acetyl CoA Carboxylase [2]; 10 mg/kg/day ip): 54 ± 6% | Percent Control, in vivo enzyme activity (Acetyl CoA Carboxylase [2]; 20 mg/kg/day ip): 57 ± 7% | Percent Control, in vivo enzyme activity (Acetyl CoA Carboxylase [2]; 40 mg/kg/day ip): 47 ± 5% | Percent Control, in vivo enzyme activity (Acetyl CoA Carboxylase [2]; 60 mg/kg/day ip): 60 ± 4% | Cholesterol, concentration as a function of control (Chylomicrons): 77 ± 6% | Neutral Lipids, concentration as a function of control (Chylomicrons): 69 ± 7% | Phospholipids, concentration as a function of control (Chylomicrons): 65 ± 5% | Protein, concentration as a function of control (Chylomicrons): 106 ± 6% | Triglycerides, concentration as a function of control (Chylomicrons): 69 ± 6% | remaining activity at 50 µM ([3]; 50 μM): 87 ± 5% | remaining activity at 100 µM ([3]; 100 μM): 38 ± 3% | remaining activity at 200 µM ([3]; 200 μM): 33 ± 4% | remaining activity at 50 µM (Acetyl CoA Carboxylase [4]; 50 μM): 84 ± 6% | remaining activity at 100 µM (Acetyl CoA Carboxylase [4]; 100 μM): 100 ± 7% | remaining activity at 200 µM (Acetyl CoA Carboxylase [4]; 200 μM): 99 ± 5%
